From the CheMixHub viscosity set

Assay: xn = mol fraction of the nth substance listed
Conditions: 101 kPa

O=S(Cl)Cl + CCOCC
298.15 K
Conditions	viscosity [mPa·s]
x1 = 0.334	0.3365
x1 = 0.845	0.548

ClC(Cl)C(Cl)(Cl)Cl + CCOc1ccccc1
298.15 K
Conditions	viscosity [mPa·s]
x2 = 0.0971	2.1
x2 = 0.2214	1.92
x2 = 0.4895	1.607
x2 = 0.6798	1.393
x2 = 0.903	1.206

C1COCO1 + CN(C)C=O
viscosity [mPa·s]
Conditions	x2 = 0.1012	x2 = 0.2021	x2 = 0.3028	x2 = 0.4032	x2 = 0.5033	x2 = 0.6032	x2 = 0.7028	x2 = 0.8021	x2 = 0.9012
298.15 K	0.567	0.568	0.578	0.594	0.614	0.642	0.676	0.715	0.759
308.15 K	0.506	0.51	0.52	0.535	0.552	0.578	0.606	0.637	0.671
318.15 K	0.467	0.477	0.488	0.5	0.515	0.534	0.555	0.576	0.597

C1COCO1 + CO
303.15 K
Conditions	viscosity [mPa·s]
x1 = 0.04585	0.5056
x1 = 0.09758	0.5088
x1 = 0.1564	0.516
x1 = 0.2238	0.5272
x1 = 0.3019	0.5382
x1 = 0.3935	0.5516
x1 = 0.5023	0.5642
x1 = 0.6337	0.5454
x1 = 0.7956	0.5446

Cc1cccc(C)n1 + CO
Conditions	viscosity [mPa·s]
298.01 K, x1 = 0.1115	0.705
298.12 K, x1 = 0.2763	0.857
298.18 K, x1 = 0.4001	0.912
298.18 K, x1 = 0.5482	0.909
298.19 K, x1 = 0.8449	0.846
298.24 K, x1 = 0.2399	0.823
298.29 K, x1 = 0.7013	0.891
303.08 K, x1 = 0.1115	0.655
303.15 K, x1 = 0.8449	0.789
303.17 K, x1 = 0.2763	0.793
303.21 K, x1 = 0.2399	0.763
303.21 K, x1 = 0.4001	0.85
303.24 K, x1 = 0.7013	0.828
303.25 K, x1 = 0.5482	0.84
308.08 K, x1 = 0.1115	0.613
308.18 K, x1 = 0.8449	0.737
308.19 K, x1 = 0.2763	0.739
308.24 K, x1 = 0.5482	0.782
308.25 K, x1 = 0.2399	0.71
308.26 K, x1 = 0.7013	0.774
312.95 K, x1 = 0.2399	0.662
313.15 K, x1 = 0.1115	0.572
313.22 K, x1 = 0.8449	0.691
313.25 K, x1 = 0.2763	0.688
313.27 K, x1 = 0.4001	0.729
313.33 K, x1 = 0.7013	0.725
318.22 K, x1 = 0.1115	0.535
318.28 K, x1 = 0.8449	0.65
318.32 K, x1 = 0.2399	0.617
318.33 K, x1 = 0.2763	0.643
318.33 K, x1 = 0.4001	0.682
318.35 K, x1 = 0.5482	0.688
318.38 K, x1 = 0.7013	0.68
